In patent publication EP0082731A1, “The use of peptides as medicaments” (NOVO INDUSTRI A/S, priority 1981, dated 1983):

What was measured:
[1] = tested on: rat free fat cells; test: Lipolytic effect on rat free fat cells in vitro; format: cell-based; details: compared with glucagon
[2] = tested on: rats; test: Experiment B2: oral glucose tolerance test in rats; format: in vivo, Wistar rats; details: glucose 5 g/kg perorally at 0 and 60 min, glucagon(1-21) 1 mg/kg at 0, 30, 60, 90 min
Protocol: The effect of glucagon(1-21) was investigated in rats during an oral glucose tolerance test. 20 male Wistar rats were divided into 2 groups of 10 rats-and dosed as follows: Both groups were dosed with glucose (5 g/kg, perorally) at 0 and 60 minutes. The placebo group was dosed with 1 ml of 0.9% saline with 0.1% HSA intraperitoneally at the times 0, 30, 60, and 90 minutes. The other group was dosed with glucagon(1-21) (1 mg/kg) in 0.9% saline with HSA . at the times 0, 30, 60, and 90 minutes. Blood samples were drawn from the tails at the times -5, 0, 15, 30, 45, 60, 90, and 120 minutes for blood glucose determination. The blood glucose values are stated in Table III below.

[3] = tested on: pigs; test: Experiment C1: effect on plasma glucose in pigs during intravenous glucose infusion; format: in vivo, pigs (Danish breed/Yorkshire); details: for Plasma glucose: pigs, cross-over, i.v. glucose 0.7 g/kg/h + glucagon(1-21) 100 µg/kg/h 0-120 min
Protocol: The effect of glucagon(1-21) on plasma glucose levels was investigated during an intravenous glucose infusion. 4 female pigs (Danish breed/Yorkshire) weighing 30 kg (+/- 3 kg) were dosed with glucose (0.7 g/kg/h) as an intravenous infusion and with the same glucose infusion + infusion of glucagon(-1-21) (100µg/kg/h) from 0 to 120 minutes. The experiment was carried out as a cross-over experiment. The pigs were infused through intravenous ear catheters and blood samples were taken from the other ear at the times 0, 15, 30, 45, 60, 75, 90, 105, and 120 minutes. Glucose was analyzed by the hexokinase method and the blood glucose values are stated in Table IV below.

[4] = tested on: rats; test: Experiment B1: effect on blood glucose in rats in vivo, intravenous glucose infusion; set-up: species or system Wistar rats; details: for Blood glucose: rats, i.v. glucose 2 mg/min 0-30 min, then infusion of 1 mg glucagon(1-21) 30-60 min
Protocol: Blood samples were drawn from the carotid artery at the times 0, 2, 5, 10, 20, 25, 30, 40, 50, and 60 minutes and blood glucose values were determined by the hexokinase method on an autoanalyzer. The blood glucose values are stated in Table II below.

[5] = tested on: NMRI mice; test: Experiment E: acute toxicity study; format: in vivo; details: 10 mg intravenously as a bolus, about 500 mg/kg body weight
[6] = tested on: rats; test: Experiment A: effect on IRI-release in glucose-infused rats in vivo (RIA on plasma); set-up: species or system Wistar strain; details: anaesthetized rats, i.v. glucose 1.5 mg/min + glucagon(1-21) 100 µg/kg/h
Protocol: 10 male rats, Wistar strain, 150 g (+/- 5 g) were anaesthetized with Pentobarbital. Polyethylene catheters were inserted into the right carotid artery for blood sampling and the left jugular vein for infusions. The rats were divided into two groups with 5 animals in each group. One group was infused with glucose (1.5 mg/min) from 0 to 60 minutes (placebo) and one group was infused with glucose (1.5 mg/min) + glucagon(1-21) (100 µg/kg/h) from […]. Blood was sampled into glasses on ice containing heparin (250 IU/ml) and aprotinin (600 KIU/ml) at the times 0, 1, 10, 20, 30, 40, 50, and 60 minutes. Insulin was determined by radio- immuno assay (RIA) on plasma.

[7] = tested on: pigs; test: Experiment C2: oral glucose tolerance test in pigs; format: in vivo; details: cross-over, glucose 5 g/kg perorally at 0 and 60 min, glucagon(1-21) 1 mg/kg/h i.v. 0-120 min
Protocol: The effect of glucagon(1-21) on plasma glucose levels was investigated during an oral glucose tolerance test in pigs. 4 pigs were dosed in a cross-over experiment with glucose (5 g/kg) perorally at 0 and 60 minutes + placebo (saline with HSA) or glucagon(1-21) (1 mg/kg/h) from 0 to 120 minutes intravenously. Blood samples were drawn from an ear vein at the times -5, 10, 20, 30, 45, 60, 75, 90, 105, and 120 minutes and plasma glucose was assayed by the hexokinase method. The plasma glucose values are stated in Table V below: […]

[8] = tested on: isolated perfused rat pancreas; test: IRI (insulin) release from the isolated perfused rat pancreas
Description: Such a use should be especially safe as no hypoglycaemia will occur during treatment because of the lack of IRI releasing effect in the presence of hypoglycaemia and normoglycaemia.
Furthermore, it is stated therein that compounds of formula I show no or minor, negligible metabolic effects. […] Based thereupon it is surprising that compounds of formula I have an insulin releasing effect on animals primed with glucose corresponding to hyperglycaemia.

[9] = tested on: rats; test: Metabolic effects after administration to normally fasted and fed rats in vivo

glucagon-(1-21)-heneicosapeptide (HSQGTFTSDYSKYLDSRRAQD; Glucagon; UniProt P01275 53-73, looked up, fragment) [glucagon(1-21)]
lipolytic effect [1]: negligible | Blood glucose ([2]; time 0 min): 0.96 mg/mL | Blood glucose ([2]; time 15 min): 1.32 mg/mL | Blood glucose ([2]; time 30 min): 1.35 mg/mL | Blood glucose ([2]; time 45 min): 1.23 mg/mL | Blood glucose ([2]; time 60 min): 1.36 mg/mL | Blood glucose ([2]; time 90 min): 1.37 mg/mL | Blood glucose ([2]; time 120 min): 1.37 mg/mL | Blood glucose ([2]; time -5 min): 0.89 mg/mL | glucose tolerance ([3]; glucose primed pigs, infused intravenously): improves the glucose tolerance | Plasma glucose ([3]; time 0 min): 0.9 mg/mL | Plasma glucose ([3]; time 15 min): 1.5 mg/mL | Plasma glucose ([3]; time 30 min): 1.7 mg/mL | Plasma glucose ([3]; time 45 min): 1.8 mg/mL | Plasma glucose ([3]; time 60 min): 1.9 mg/mL | Plasma glucose ([3]; time 75 min): 1.8 mg/mL | Plasma glucose ([3]; time 90 min): 2.0 mg/mL | Plasma glucose ([3]; time 105 min): 1.9 mg/mL | Plasma glucose ([3]; time 120 min): 1.9 mg/mL | glucose tolerance ([4]; glucose primed rats, infused intravenously): improves the glucose tolerance | Blood glucose ([4]; time 0 min): 1.0 mg/mL | Blood glucose ([4]; time 2 min): 1.2 mg/mL | Blood glucose ([4]; time 5 min): 1.4 mg/mL | Blood glucose ([4]; time 10 min): 1.5 mg/mL | Blood glucose ([4]; time 20 min): 1.7 mg/mL | Blood glucose ([4]; time 25 min): 1.9 mg/mL | Blood glucose ([4]; time 30 min): 1.9 mg/mL | Blood glucose ([4]; time 40 min): 1.3 mg/mL | Blood glucose ([4]; time 50 min): 1.0 mg/mL | Blood glucose ([4]; time 60 min): 0.8 mg/mL | adverse effects [5]: no adverse effects | deaths [5]: No deaths occurred | IRI ([6]; time 0 min): 18 µU/ml | IRI ([6]; time 1 min): 43 µU/ml | IRI ([6]; time 10 min): 48 µU/ml | IRI ([6]; time 20 min): 62 µU/ml | IRI ([6]; time 30 min): 56 µU/ml | IRI ([6]; time 40 min): 56 µU/ml | IRI ([6]; time 50 min): 60 µU/ml | IRI ([6]; time 60 min): 55 µU/ml | Plasma glucose ([7]; time 10 min): 1.0 mg/mL | Plasma glucose ([7]; time 20 min): 1.4 mg/mL | Plasma glucose ([7]; time 30 min): 1.7 mg/mL | Plasma glucose ([7]; time 45 min): 1.8 mg/mL | Plasma glucose ([7]; time 60 min): 1.9 mg/mL | Plasma glucose ([7]; time 75 min): 1.8 mg/mL | Plasma glucose ([7]; time 90 min): 1.7 mg/mL | Plasma glucose ([7]; time 105 min): 1.7 mg/mL | Plasma glucose ([7]; time 120 min): 2.1 mg/mL | Plasma glucose ([7]; time -5 min): 0.8 mg/mL | insulin releasing effect ([8]; at hyperglycaemia): have this effect | insulin release ([8]; buffer glucose concentration 0.6 mg/ml corresponding to hypoglycaemia, infused to the same concentration as glucagon): no such effect | IRI (immunoreactive insulin) releasing effect, as share of glucagon's ([8]; buffer glucose concentration 1.5 mg/ml corresponding to mild hyperglycaemia): about 60% | IRI (immunoreactive insulin) releasing effect, as share of glucagon's ([8]; buffer glucose concentration 2.0 mg/ml corresponding to hyperglycaemia): about 85% | metabolic effects [9]: No metabolic effects have been found
